Test results from patent US7250409B2, “Ningalin B analogs employable for reversing multidrug resistance” (The Scripps Research Institute, priority 2000, dated 2007).
“Also recorded” adds a separate entry of the source. One block for each compound: values may come before it.

Tests used:
HCT116 = assay: Cytotoxic activity against wild-type HCT116; format: cell-based, human
Protocol: (§1) Cytotoxic Activity and Reversal of Multidrug Resistance. […] (Quesada, A. R.; et al. Br. J. Cancer 1996, 74, 677.) With exception of ningalin A, (Ningalin A, lamellarin O, lukianol A, and permethyl storniamide A: Boger, D. L.; et al. J. Am. Chem. Soc. 1999, 121, 54.) the biological evaluation of the ningalin family has not been explored. Consequently, ningalin B and a number of structurally related synthetic intermediates were tested in a L1210 cytotoxic assay, and the results are summarized in FIGS. 6 and 10. […] (Ningalin A, lamellarin O, lukianol A, and permethyl storniamide A: Boger, D. L.; et al. J. Am. Chem. Soc. 1999, 121, 54.)
(Quesada, A. R.; et al. Br. J. Cancer 1996, 74, 677.) P-gp is a 170 kDa plasma membrane glycoprotein encoded in humans by the MDR1 gene which exports drugs out of mammalian cells, lowering their intracellular concentration. (Patel, N. H.; et al. Invest. New Drugs 1994, 12, 1. Gottesman, M. M.; et al. Annu. Rev. Biochem. 1993, 62, 385.) Therefore, 7-14 were also tested against a wild-type human colon cancer cell line (HCT116) and two resistant HCT116 cell lines. The first resistant cell line (HCT116/VM46) embodies the MDR phenotype and overexpresses P-glycoprotein while the second cell line (HCT116/VP35) derives its resistance through underexpression of topoisomerase II. The examination of the latter cell line along with the wild-type HCT116 and their comparison with HCT116VM46 allows an accurate assessment of the MDR sensitivity as well as an assessment of one potential therapeutic target.

HCT116/VM46 = assay: Reversal of multidrug resistance: resensitizing HCT116/VM46 to vinblastine and doxorubicin; format: cell-based, human; conditions: for resensitization of HCT116/VM46 compared with verapamil: vinblastine and doxorubicin
L1210 = L1210 cytotoxic assay; format: cell-based
Text: FIG. 6 illustrates a table with a comparison of the cytotoxic activity of ningalin B and some analogs with some commonly used compounds against three different cell lines.
as §1

Pgp-170 = molecular target: T1, Pgp-170 (Homo sapiens, UniProt P08183); assay: Inhibition of dye efflux (rhodamine 123) from HCT116/VM46; format: cell-based; conditions: 30 min incubation in rhodamine 123 in phosphate buffer solution
T1 construct: The first resistant cell line (HCT116/VM46) embodies the MDR phenotype and overexpresses P-glycoprotein; endogenous in cells; host or cells: HCT116/VM46 (drug-resistant human colon cancer cell line)
Protocol: FIG. 8 illustrates the inhibition of dye efflux (rhodamine 123) from the HCT116/VM46 cell line. Accumulation of rhodamine 123 in the HCT116/VM46 cell line after 30 min incubation in […] rhodamine in phosphate buffer solution (Quesada, A. R.; et al., Br. J. Cancer 1996, 74, 677).
Fundamentally more important, many of the agents were found capable of reversing MDR at noncytotoxic concentrations, resensitizing HCT116/VM46 to vinblastine and doxorubicin (FIGS. 7 and 11).

[1] = cytotoxic activity relative to ningalin B

T1 sequence (P08183 whole entry): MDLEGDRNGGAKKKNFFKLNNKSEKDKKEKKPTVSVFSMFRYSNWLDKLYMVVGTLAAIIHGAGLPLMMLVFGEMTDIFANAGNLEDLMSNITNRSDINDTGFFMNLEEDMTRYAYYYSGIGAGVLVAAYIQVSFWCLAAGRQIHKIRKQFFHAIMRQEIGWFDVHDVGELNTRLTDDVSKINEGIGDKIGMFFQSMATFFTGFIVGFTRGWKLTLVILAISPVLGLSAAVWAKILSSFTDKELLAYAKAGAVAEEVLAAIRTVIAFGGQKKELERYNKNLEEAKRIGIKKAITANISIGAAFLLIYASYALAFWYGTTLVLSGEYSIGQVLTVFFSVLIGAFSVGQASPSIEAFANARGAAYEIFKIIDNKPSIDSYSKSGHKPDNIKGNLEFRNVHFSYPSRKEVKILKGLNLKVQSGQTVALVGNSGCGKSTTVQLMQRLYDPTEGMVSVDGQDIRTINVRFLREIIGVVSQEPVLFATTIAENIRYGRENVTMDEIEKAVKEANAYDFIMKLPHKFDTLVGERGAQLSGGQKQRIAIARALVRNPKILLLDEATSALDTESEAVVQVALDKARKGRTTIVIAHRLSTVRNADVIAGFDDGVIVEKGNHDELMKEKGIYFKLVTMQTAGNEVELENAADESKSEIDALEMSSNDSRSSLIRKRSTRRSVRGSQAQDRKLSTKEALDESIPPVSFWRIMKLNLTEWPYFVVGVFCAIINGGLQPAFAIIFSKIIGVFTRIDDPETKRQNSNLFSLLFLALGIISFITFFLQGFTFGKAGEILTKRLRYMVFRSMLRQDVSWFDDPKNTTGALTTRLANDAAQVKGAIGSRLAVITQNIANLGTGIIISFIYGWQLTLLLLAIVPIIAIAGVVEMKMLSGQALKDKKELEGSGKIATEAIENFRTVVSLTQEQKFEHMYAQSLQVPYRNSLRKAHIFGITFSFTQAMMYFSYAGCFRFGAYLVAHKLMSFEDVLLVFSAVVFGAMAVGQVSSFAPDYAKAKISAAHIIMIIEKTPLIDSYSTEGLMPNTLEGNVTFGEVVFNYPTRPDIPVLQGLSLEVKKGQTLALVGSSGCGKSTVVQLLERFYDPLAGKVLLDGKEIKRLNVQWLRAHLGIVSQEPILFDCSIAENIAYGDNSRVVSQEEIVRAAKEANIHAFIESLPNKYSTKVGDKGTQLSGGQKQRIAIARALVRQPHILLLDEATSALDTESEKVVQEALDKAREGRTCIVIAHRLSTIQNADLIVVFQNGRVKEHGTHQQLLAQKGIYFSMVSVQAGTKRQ

SMILES: COCOc1cc(OC)c(OC)cc1-c1c(-c2ccc(OC)c(OC)c2)c(C(=O)OC)n(CCc2ccc(OC)c(OC)c2)c1C(=O)OC [compound 10, Dimethyl 3-(4,5-Dimethoxy-2-(methoxymethoxy)phenyl)-4-(3,4-dimethoxyphenyl)-1-[2-(3,4-dimethoxyphenyl)ethyl]pyrrole-2,5-dicarboxylate]
- inherent cytotoxic activity (cell line not given) (HCT116): lacking inherent cytotoxic activity
- ability to resensitize HCT116/VM46 to vinblastine and doxorubicin (HCT116/VM46; agent at 1 μM): able to resensitize
- resensitization of HCT116/VM46 compared with verapamil (HCT116/VM46; agent at 1 μM): more effectively than verapamil
- MDR reversal in HCT116/VM46 (HCT116/VM46; agent at 7.5 μM): complete MDR reversal
- MDR reversal, resensitizing HCT116/VM46 to vinblastine and doxorubicin (HCT116/VM46; concentration not given): potently reverse MDR

SMILES: COC(=O)c1c(-c2ccc(OC)c(OC)c2)c2c3cc(OC)c(OC)cc3oc(=O)c2n1CCc1ccc(OC)c(OC)c1 [compound 11, Methyl 7,8-Dimethoxy-3-(2-(3,4-dimethoxyphenyl)ethyl)-1-(3,4-dimethoxyphenyl)-[1]-benzopyrano[3,4-b]pyrrol-4(3B)-one-2-carboxylate]
- MDR reversal in HCT116/VM46 (HCT116/VM46; agent at 1 μM): complete MDR reversal
- ability to resensitize HCT116/VM46 to vinblastine and doxorubicin (HCT116/VM46; agent at 1 μM): able to resensitize
- resensitization of HCT116/VM46 compared with verapamil (HCT116/VM46; agent at 1 μM): more effectively than verapamil
- MDR reversal in HCT116/VM46 (HCT116/VM46; agent at 7.5 μM): hypersensitive to vinblastine
- MDR reversal, resensitizing HCT116/VM46 to vinblastine and doxorubicin (HCT116/VM46; concentration not given): potently reverse MDR

SMILES: COc1ccc(CCn2cc(-c3ccc(OC)c(OC)c3)c3c4cc(OC)c(OC)cc4oc(=O)c32)cc1OC [compound 13, Hexamethyl Ningalin B]
- fold less active against L1210 than ningalin B (L1210; [1]): 5 fold
- fold less active against HCT116 than ningalin B (HCT116; [1]): 2.5 fold
- MDR reversal in HCT116/VM46 (HCT116/VM46; agent at 1 μM): complete MDR reversal
- ability to resensitize HCT116/VM46 to vinblastine and doxorubicin (HCT116/VM46; agent at 1 μM): able to resensitize
- resensitization of HCT116/VM46 compared with verapamil (HCT116/VM46; agent at 1 μM): more effectively than verapamil
- MDR reversal in HCT116/VM46 (HCT116/VM46; agent at 7.5 μM): hypersensitive to vinblastine
- MDR reversal, resensitizing HCT116/VM46 to vinblastine and doxorubicin (HCT116/VM46; concentration not given): potently reverse MDR

- dye efflux (rhodamine 123) from HCT116/VM46 (Pgp-170): inhibited dye efflux
SMILES: COc1ccc(-c2c3n(c4c(=O)oc5cc(OC)c(OC)cc5c24)CCc2cc(OC)c(OC)cc2C3=O)cc1OC [compound 14, 9,10-Dihydro-12,13-dimethoxy-1-(3′,4′-dimethoxyphenyl)-3,4-dimethoxy-[4,3-d]-[1]-benzopyrano-15H-benzazepino[3,2-a]-[3]-pyrrol-7,15(18H)-dione]
- inherent cytotoxic activity (cell line not given) (HCT116): lacking inherent cytotoxic activity
- MDR reversal in HCT116/VM46 (HCT116/VM46; agent at 1 μM): hypersensitivity of HCT116/VM46 to vinblastine
- ability to resensitize HCT116/VM46 to vinblastine and doxorubicin (HCT116/VM46; agent at 1 μM): able to resensitize
- resensitization of HCT116/VM46 compared with verapamil (HCT116/VM46; agent at 1 μM): more effectively than verapamil
- MDR reversal, resensitizing HCT116/VM46 to vinblastine and doxorubicin (HCT116/VM46; concentration not given): potently reverse MDR; also recorded: most potent MDR reversal agent identified in this series
- sensitivity of HCT116/VM46 towards vinblastine in presence of agent (HCT116/VM46; concentration not given, vinblastine): hypersensitivity towards vinblastine

SMILES: COc1ccc(CCn2c(C(=O)N(C)C)c(-c3ccc(OC)c(OC)c3)c3c4cc(OC)c(OC)cc4oc(=O)c32)cc1OC [compound 15, N,N-Dimethyl 7,8-Dimethoxy-3-(2-(3,4-dimethoxyphenyl)ethyl)-1-(3,4-dimethoxyphenyl)-[1]-benzopyrano[3,4-b]pyrrol-4(3H)-one-2-carboxamide]
- inherent cytotoxic activity (cell line not given) (HCT116): lacking inherent cytotoxic activity
- MDR reversal, resensitizing HCT116/VM46 to vinblastine and doxorubicin (HCT116/VM46; concentration not given): potently reverse MDR

SMILES: O=c1oc2cc(O)c(O)cc2c2c(-c3ccc(O)c(O)c3)cn(CCc3ccc(O)c(O)c3)c12 [ningalin B, Ningalin B]
- cytotoxic activity against L1210 (L1210; L1210 cell line): only moderately active
- cytotoxic activity against HCT116 (HCT116; wild-type human colon cancer cell line HCT116): only moderately active
- MDR reversal, resensitizing HCT116/VM46 to vinblastine and doxorubicin (HCT116/VM46; concentration not given): not

SMILES: COc1ccc(CCN(C)CCCC(C#N)(c2ccc(OC)c(OC)c2)C(C)C)cc1OC (stereo not drawn) [verapamil, reference compound]
- MDR reversal in HCT116/VM46 (HCT116/VM46; agent at 7.5 μM): complete reversal
